# Source: publication PMC12040169 (PLOS Biology, 2025)
# Assay: in vitro
# Details: human, hela cells, % viability
Structure (SMILES),"viability at 28.5 h, 10 µM [%]","viability at 28.5 h, 10 µM (bulk resorufin, single well) [%]"
O=C(O)c1ccc(S(=O)(=O)c2ccc3c(c2)C(=O)N(c2cc(C(=O)O)cc(C(=O)O)c2)C3=O)cc1 [CBK262824],92.8,
C/C(=N\NC(=O)c1nc(-c2ccccc2)cc(-c2ccccc2)n1)c1cccnc1 [CBK262827],90.2,
O=C(CSc1nnc(-c2ccncc2)n1-c1ccccc1)N/N=C/c1ccco1 [CBK262828],94.4,
CCOc1cccc(N2C(=O)CC(N3CCN(c4ccccn4)CC3)C2=O)c1 (stereo not drawn) [CBK262829],105,
O=C(O)c1ccc(CN2C(=O)c3ccc(C(=O)c4ccc(C(=O)O)cc4)cc3C2=O)cc1 [CBK262831],102,
CC1=CC(C)C(CNCCN2CCNCC2)C(C)C1 (stereo not drawn) [CBK262832],90,
COc1ccc(N2C(=O)c3ccc(C(=O)Nc4ccccc4C(=O)O)cc3C2=O)cc1O [CBK262833],97.8,
O=C(O)CCCCCN1C(=O)/C(=C/c2ccc(O)cc2)SC1=S [CBK262835],87.6,
Nc1ccc(-c2nc3cc(C(=O)c4ccc5[nH]c(-c6ccc(N)cc6)nc5c4)ccc3[nH]2)cc1 [CBK262848],99.7,
CN1CCN(CCC(=O)N/N=C/c2ccc(O)cc2O)CC1 [CBK262849],94.2,
O=C(CSc1ncn[nH]1)N/N=C/c1cn(-c2ccccc2)nc1-c1ccccc1 [CBK262850],101,
O=C(O)CCCN1C(=O)/C(=C/c2ccc(O)c(O)c2)SC1=S [CBK262852],84.9,
O=C(NC(C(=O)N/N=C/c1cccc(O)c1)c1n[nH]c(=O)c2ccccc12)c1ccccc1 (stereo not drawn) [CBK262853],89,
Cc1cc2nc(-c3cc(NC(=O)c4cccc([N+](=O)[O-])c4)ccc3O)oc2cc1C [CBK262855],103,
CN1C(=O)C(=CNCCN2CCN(C(=S)Nc3ccccc3)CC2)C(=O)N(C)C1=O [CBK262858],,97.5
COC(=O)c1ccc(N2C(=O)CC(NCCc3ccc(S(N)(=O)=O)cc3)C2=O)cc1 (stereo not drawn) [CBK262859],99.9,
Cc1ccc(S(=O)(=O)NCC(c2ccccc2)N2CCN(CCC#N)CC2)cc1 (stereo not drawn) [CBK262865],97.4,
O=C(O)c1ccc(S(=O)(=O)c2ccc3c(c2)C(=O)N(c2ccc(Sc4ccc([N+](=O)[O-])cc4)cc2)C3=O)cc1 [CBK262869],104,
CC(CCc1ccccc1)NC1CCCc2c1[nH]c1ccc([N+](=O)[O-])cc21 (stereo not drawn) [CBK262875],73.2,
COc1ccc(CCC(C)NC2CCCc3c2[nH]c2ccc([N+](=O)[O-])cc32)cc1 (stereo not drawn) [CBK262876],71.6,
CC(NC1CCN(Cc2ccccc2)CC1)C12CC3CC(CC(c4ccc(Cl)cc4)(C3)C1)C2 (stereo not drawn) [CBK262877],90.1,

Structure (SMILES),"viability at 28.5 h, 10 µM [%]","viability at 28.5 h, 10 µM (bulk resorufin, single well) [%]"
CC1C2CCCN2CCN1Cc1cccc(Oc2ccccc2)c1 (stereo not drawn) [CBK262880],94.9,
Cc1cc(C)nc(SCC(=O)N/N=C2/C(=O)Nc3ccccc32)n1 [CBK262883],108,
COc1ccc(-c2cc(C(=O)N/N=C/c3c(C)[nH]c4ccccc34)[nH]n2)cc1 [CBK262884],55.7,
O=C(N/N=C/c1ccccn1)c1cc(-c2ccc3ccccc3c2)[nH]n1 [CBK262886],93.9,
CCOc1ccc(-c2n[nH]c(C(=O)N/N=C3/C(=O)Nc4ccccc43)c2C)cc1 [CBK262889],99.6,
CC(NCc1ccncc1)=C1C(=O)c2ccccc2C1=O [CBK262890],105,
N#C/C(=C/c1c[nH]c2ccccc12)c1n[nH]c(N)c1C#N [CBK262893],70.4,
N=c1n(CC(=O)O)c2ccccc2n1Cc1ccc(Cl)cc1 [CBK262897B],89.5,
c1ccc(-c2oc3ncn4nc(COc5cccc6ccccc56)nc4c3c2-c2ccccc2)cc1 [CBK262898],99.9,
Cc1cc(=O)n2ccc(CN3CCOCC3)c(O)c2n1 [CBK262899C],114,
Cc1n[nH]c(C)c1CCC(=O)N/N=C/c1ccc(Cl)cc1Cl [CBK262901],86.6,
CN(C)c1ccc(/C=N/NC(=O)CCn2c3ccccc3c3cc(I)ccc32)cc1 [CBK262902],84.5,
NC(CC(=O)O)c1cccc([N+](=O)[O-])c1 (stereo not drawn) [CBK262903C],96.9,
O=C(Cn1c(NCCCO)nc2ccccc21)c1ccc(Cl)c(Cl)c1 [CBK262905B],94.1,
CCn1c(=N)n(CC(=O)O)c2ccccc21 [CBK262906B],94,
O=C1/C(=C/NCc2cccnc2)C(c2ccccc2)=NN1c1ccc([N+](=O)[O-])cc1 [CBK262911],97.6,
CC1(C)OC2C(C(=O)O)OC(n3cnc4c(N)ncnc43)C2O1 (stereo not drawn) [CBK262912],96.2,
CCN(CC)CCn1c(=N)n(CC(O)c2ccc(C)cc2)c2ccccc21 (stereo not drawn) [CBK262914C],104,
CCCCOc1ccc(C(N)CC(=O)O)cc1 (stereo not drawn) [CBK262915],86.8,
O=C(O)COc1ccccc1/C=N\N1CCN(c2ccccn2)CC1 [CBK262916],95.9,
CC(=O)C1=C(O)C(=O)N(CC(=O)O)C1c1cccc([N+](=O)[O-])c1 (stereo not drawn) [CBK262921],97.4,

Structure (SMILES),"viability at 28.5 h, 10 µM [%]","viability at 28.5 h, 10 µM (bulk resorufin, single well) [%]"
Nc1ncnc2c1ncn2C1OC(C(=O)O)C(O)C1O (stereo not drawn) [CBK262922],99.9,
c1ccc2sc(SCc3nc4c5c6c(sc5ncn4n3)CCCC6)nc2c1 [CBK262923],92.5,
O=C(O)CCCN1C(=O)C(O)=C(C(=O)c2ccccc2)C1c1ccccc1 (stereo not drawn) [CBK262924],93.3,
COc1cc(/C=N/NC(=O)CCc2c(C)n[nH]c2C)ccc1O [CBK262925],90.1,
Cn1c(=N)n(CC(=O)O)c2ccccc21 [CBK262926B],90.4,
Cc1n[nH]c(C)c1CCC(=O)N/N=C/c1ccc(O)cc1 [CBK262927],109,
O=C(O)CC1OC(=O)c2cc3c(cc21)C(=O)OC3CC(=O)O (stereo not drawn) [CBK262928],100,
COc1ccc(C(O)Cn2c(=N)n(CCN3CCCCC3)c3ccccc32)cc1 (stereo not drawn) [CBK262930C],98.8,
CCOc1ccc(C(N)CC(=O)O)cc1 (stereo not drawn) [CBK262933C],82.4,
C/C(=N\NC(=O)CCc1c(C)n[nH]c1C)c1ccc(N)cc1 [CBK262935],97.7,
Nc1ccc(-c2ncccc2O)cc1 [CBK262937C],106,
N#Cc1c(NC(=O)COc2ccc(Cl)cc2)oc(-c2ccccc2)c1-c1ccccc1 [CBK262938],91.5,
CCNC(=S)N(CCc1ccccc1)C1CC(=O)N(c2ccc(F)cc2)C1=O (stereo not drawn) [CBK262941],87.6,
Cn1c(=O)c2c(nc(SCC(=O)O)n2C)n(C)c1=O [CBK262942],88.3,
O=C(COc1ccc(Cl)cc1Br)NNC(=O)c1ccccc1O [CBK262943],97.8,
O=C(Nc1ccc2oc(-c3cccnc3)nc2c1)c1ccc(-c2cccc([N+](=O)[O-])c2)o1 [CBK262945],106,
Cc1ccc2nc(C)c(CCC(=O)O)c(O)c2c1 [CBK262946],91.8,
Cc1ccc(NC(=O)c2ccc(-c3cccc([N+](=O)[O-])c3)o2)cc1-c1nc2ncccc2o1 [CBK262947],89.7,
Cc1cc(C(=O)Nc2cccc(-c3nc4cc(Cl)ccc4o3)c2C)ccc1[N+](=O)[O-] [CBK262949],91.8,
CC1(C)CC(NC(=O)c2cccc([N+](=O)[O-])c2)CC(C)(C)N1 [CBK262952C],99.8,
CCOc1cc(/C=C2\SC(=N)NC2=O)cc(Cl)c1O [CBK262955],84.4,

Structure (SMILES),"viability at 28.5 h, 10 µM [%]","viability at 28.5 h, 10 µM (bulk resorufin, single well) [%]"
COc1ccc(/C=C(\C#N)c2nc3ccccc3n2Cc2c(C)ccc3ccccc23)cc1 [CBK262960],119,
NC(=O)c1ccc(NC(=O)COc2ccccc2Cl)cc1 [CBK262961],109,
CC(=O)Nc1ccc(S(=O)(=O)Oc2ccc(C3C4=C(CC(C)(C)CC4=O)N=C4c5ccccc5C(=O)C43)cc2)cc1 (stereo not drawn) [CBK262964],93.7,
N#C/C(=C\c1ccc(-c2ccc3c(c2)C(=O)NC3=O)o1)c1nc2ccccc2[nH]1 [CBK262965],94.4,
CC1CC(N(C(=O)c2cccc(Br)c2)c2ccccc2)c2ccccc2N1 (stereo not drawn) [CBK262966],96.7,
c1ccc2c(OCc3nc4ccccc4[nH]3)cccc2c1 [CBK262969],106,
COC(=O)Nc1ccc2c(c1)N(C(=O)CCN(C)C)c1ccccc1CC2 [CBK262972C],87.2,
O=c1c2c3c(sc2n2c(S)nnc2n1Cc1ccccc1)CN(Cc1ccccc1)CC3 [CBK262973],95,
CCn1c(C(O)c2ccc(OC)c(OC)c2)nc2ccccc21 (stereo not drawn) [CBK262974],90.1,
O=C(Cc1ccccc1)NN1C(=O)/C(=C/c2ccccc2C(=O)O)SC1=S [CBK262975],104,
COC(=O)CNC(c1ccccc1)c1cc(Br)ccc1NC(C)=O (stereo not drawn) [CBK262976],119,
Cc1ccc(Cn2c(=N)n(CC(=O)c3ccc(Br)cc3)c3ccccc32)cc1 [CBK262979B],94,
COC(=O)CN1C(CN2CCOCC2)=Nc2ccc(Br)cc2C1c1ccccc1 (stereo not drawn) [CBK262981],89.8,
COc1ccc(OC)c(N/C=C(/C#N)c2nc(-c3cc4c(ccc5ccccc54)oc3=O)cs2)c1 [CBK262991],109,
COc1ccc(Cl)cc1NC(=O)COc1cccc2ccccc12 [CBK262995],94.9,
CC(C)(C)c1cc(C(c2ccccc2O)N2CCOCC2)cc(C(C)(C)C)c1O (stereo not drawn) [CBK262998],86.4,
COc1ccc(/C=N/NC(=O)c2ccc(O)cc2O)cc1COc1cc(C)c(Cl)c(C)c1 [CBK263000],90.3,
N/C(=N\OC(=O)COc1cccc2ccccc12)c1ccc(Cl)cc1 [CBK263004],88.4,
O=C(COc1cccc2ccccc12)NNC(=O)C1CCCO1 (stereo not drawn) [CBK263007],89.7,
COc1ccccc1CC(=N)NOC(=O)COc1cccc2ccccc12 [CBK263012],94.2,
COc1ccc(Cl)cc1N/C=C(/C#N)c1nc(-c2cc3cc([N+](=O)[O-])ccc3oc2=O)cs1 [CBK263014],102,
